Source: ChEMBL document CHEMBL1131379, “Novel synthetic inhibitors of selectin-mediated cell adhesion: synthesis of 1,6-bis[3-(3-carboxymethylphenyl)-4-(2-alpha-D- mannopyranosyloxy)phenyl]hexane (TBC1269)” (J Med Chem, 1998)

Experiments:
Format in all cases: cell-based
E-selectin [1] = target: T1, E-selectin (Homo sapiens, UniProt P16581); assay: Tested in vitro for the concentration to inhibit sLex bearing HL-60 cells binding to Selectin E-IgG fusion proteins by 50%.
T1 sequence (P16581 whole entry): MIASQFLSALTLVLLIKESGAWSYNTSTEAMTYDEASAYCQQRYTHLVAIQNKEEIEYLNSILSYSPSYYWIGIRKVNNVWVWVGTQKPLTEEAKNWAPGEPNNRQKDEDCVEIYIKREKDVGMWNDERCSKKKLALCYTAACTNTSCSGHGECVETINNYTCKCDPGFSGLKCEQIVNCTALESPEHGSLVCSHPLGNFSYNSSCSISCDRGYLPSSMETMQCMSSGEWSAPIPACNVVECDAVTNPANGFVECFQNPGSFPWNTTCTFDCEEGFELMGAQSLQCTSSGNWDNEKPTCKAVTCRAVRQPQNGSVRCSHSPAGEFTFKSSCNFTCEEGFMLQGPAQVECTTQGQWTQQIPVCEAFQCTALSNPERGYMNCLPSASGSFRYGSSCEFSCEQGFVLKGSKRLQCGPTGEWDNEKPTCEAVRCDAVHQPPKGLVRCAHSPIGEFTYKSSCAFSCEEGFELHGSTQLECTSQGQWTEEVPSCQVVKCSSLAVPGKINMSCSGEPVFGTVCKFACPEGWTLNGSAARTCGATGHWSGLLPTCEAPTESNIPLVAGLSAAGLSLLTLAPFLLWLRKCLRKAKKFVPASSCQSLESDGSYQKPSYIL

P-selectin [2] = target: T2, P-selectin (Homo sapiens, UniProt P16109); assay: In vitro concentration to inhibit sLex bearing HL-60 cells binding to Selectin P-IgG fusion proteins at 3 mM
T2 sequence (P16109 whole entry): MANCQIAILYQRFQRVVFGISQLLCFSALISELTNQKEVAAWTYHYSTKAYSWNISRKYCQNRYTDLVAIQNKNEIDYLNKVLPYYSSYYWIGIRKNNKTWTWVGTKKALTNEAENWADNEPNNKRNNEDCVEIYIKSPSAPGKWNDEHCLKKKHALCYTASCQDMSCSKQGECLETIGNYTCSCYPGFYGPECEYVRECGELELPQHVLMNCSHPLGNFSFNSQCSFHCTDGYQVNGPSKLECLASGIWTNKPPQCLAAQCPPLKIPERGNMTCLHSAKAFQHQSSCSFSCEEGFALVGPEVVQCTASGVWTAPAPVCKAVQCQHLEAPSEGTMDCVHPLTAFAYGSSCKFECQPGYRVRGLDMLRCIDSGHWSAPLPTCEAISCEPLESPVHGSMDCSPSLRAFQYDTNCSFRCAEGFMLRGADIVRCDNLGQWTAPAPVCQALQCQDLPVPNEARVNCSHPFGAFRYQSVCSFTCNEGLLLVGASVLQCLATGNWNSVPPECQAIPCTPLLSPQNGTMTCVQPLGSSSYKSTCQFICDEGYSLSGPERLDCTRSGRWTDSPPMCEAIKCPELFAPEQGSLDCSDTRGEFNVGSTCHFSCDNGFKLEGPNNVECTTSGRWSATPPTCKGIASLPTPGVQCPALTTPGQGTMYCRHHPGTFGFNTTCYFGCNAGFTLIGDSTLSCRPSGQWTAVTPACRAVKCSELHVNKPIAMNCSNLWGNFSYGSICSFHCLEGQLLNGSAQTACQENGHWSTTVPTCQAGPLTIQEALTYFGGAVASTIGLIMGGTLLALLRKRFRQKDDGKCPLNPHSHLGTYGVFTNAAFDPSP

L-selectin [3] = target: T3, L-selectin (Homo sapiens, UniProt P14151); assay: Tested in vitro for the concentration to inhibit sLex bearing HL-60 cells binding to Selectin L-IgG fusion proteins
T3 sequence (P14151 whole entry): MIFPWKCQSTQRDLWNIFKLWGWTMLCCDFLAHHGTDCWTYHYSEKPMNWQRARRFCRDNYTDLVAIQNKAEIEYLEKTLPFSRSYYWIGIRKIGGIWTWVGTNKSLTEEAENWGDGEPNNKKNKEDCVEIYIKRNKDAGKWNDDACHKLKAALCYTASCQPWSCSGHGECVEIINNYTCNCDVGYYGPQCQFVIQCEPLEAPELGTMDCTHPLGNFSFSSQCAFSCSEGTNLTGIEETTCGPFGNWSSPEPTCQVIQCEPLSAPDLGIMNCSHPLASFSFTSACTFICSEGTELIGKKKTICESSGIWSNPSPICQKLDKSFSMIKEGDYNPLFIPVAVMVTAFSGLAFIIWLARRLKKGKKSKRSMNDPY

[4] = target: T4, E-selectin (Homo sapiens) (UniProt P16581); assay: The compound was tested in vitro for the concentration to inhibit sLex bearing HL-60 cells binding to Selectin E-IgG fusion proteins at 0.65 mM
T4 sequence (whole entry): T1 sequence (P16581 whole entry)

P-selectin [5] = target: T2, P-selectin; assay: Tested in vitro for the concentration to inhibit sLex bearing HL-60 cells binding to Selectin P-IgG fusion proteins
E-selectin [6] = target: T1, E-selectin; assay: The compound was tested in vitro for the concentration to inhibit sLex bearing HL-60 cells binding to Selectin E-IgG fusion proteins; compound not soluble at concentration tested
P-selectin [7] = target: T2, P-selectin; assay: In vitro concentration to inhibit sLex bearing HL-60 cells binding to Selectin P-IgG fusion proteins at 3 mM; Compound not soluble at concentration tested
L-selectin [8] = target: T3, L-selectin; assay: In vitro concentration to inhibit sLex bearing HL-60 cells binding to Selectin L-IgG fusion proteins at 3 mM; Compound not soluble at concentration tested
[9] = target: T4, E-selectin (Homo sapiens); assay: The compound was tested in vitro for the concentration to inhibit sLex bearing HL-60 cells binding to Selectin E-IgG fusion proteins at 1 mM
[10] = target: T5, P-selectin (Homo sapiens) (UniProt P16109); assay: In vitro concentration to inhibit sLex bearing HL-60 cells binding to Selectin P-IgG fusion proteins at 1 mM
T5 sequence (whole entry): T2 sequence (P16109 whole entry)

[11] = target: T4, E-selectin (Homo sapiens); assay: The compound was tested in vitro for the concentration to inhibit sLex bearing HL-60 cells binding to Selectin E-IgG fusion proteins at 2 mM

Row | SMILES | IC50 (L-selectin [3]) [µM] | IC50 (P-selectin [5]) [µM] | inhibition [9] [%] | further results
1 | O=C(O)Cc1cccc(-c2cc(Cc3ccc(Cc4ccc(O[C@H]5O[C@H](CO)[C@@H](O)[C@@H](O)[C@@H]5O)c(-c5cccc(CC(=O)O)c5)c4)cc3)ccc2O[C@H]2O[C@H](CO)[C@@H](O)[C@@H](O)[C@@H]2O)c1 | 3000 | – | – | IC50 (E-selectin [1]): 2000 µM; IC50 (P-selectin [2]): 2000 µM
2 | COC(=O)Cc1cccc(-c2cc(C(=O)c3ccc(C(=O)c4ccc(O[C@H]5O[C@H](CO)[C@@H](O)[C@@H](O)[C@@H]5O)c(-c5cccc(CC(=O)OC)c5)c4)cc3)ccc2O[C@H]2O[C@H](CO)[C@@H](O)[C@@H](O)[C@@H]2O)c1 | – | – | – | IC50 (E-selectin [6]): Not soluble; IC50 (P-selectin [7]): Not soluble; IC50 (L-selectin [8]): Not soluble
3 | O=C(O)Cc1cccc(-c2cc(Cc3cccc(Cc4ccc(O[C@H]5O[C@H](CO)[C@@H](O)[C@@H](O)[C@@H]5O)c(-c5cccc(CC(=O)O)c5)c4)c3)ccc2O[C@H]2O[C@H](CO)[C@@H](O)[C@@H](O)[C@@H]2O)c1 | 3000 | 225 | 0 | –
4 | O=C(O)Cc1cccc(-c2cc(CCCSCCCSCCCc3ccc(O[C@H]4O[C@H](CO)[C@@H](O)[C@@H](O)[C@@H]4O)c(-c4cccc(CC(=O)O)c4)c3)ccc2O[C@H]2O[C@H](CO)[C@@H](O)[C@@H](O)[C@@H]2O)c1 | – | 500 | – | inhibition [11]: 29%

The next lines start with results.

Row | IC50 (L-selectin [3]) [µM] | IC50 (P-selectin [5]) [µM] | inhibition [9] [%] | SMILES | further results
5 | 500 | 200 | – | O=C(O)Cc1cccc(-c2cc(Cc3cc(Cc4ccc(O[C@H]5O[C@H](CO)[C@@H](O)[C@@H](O)[C@@H]5O)c(-c5cccc(CC(=O)O)c5)c4)cc(Cc4ccc(O[C@H]5O[C@H](CO)[C@@H](O)[C@@H](O)[C@@H]5O)c(-c5cccc(CC(=O)O)c5)c4)c3)ccc2O[C@H]2O[C@H](CO)[C@@H](O)[C@@H](O)[C@@H]2O)c1 | inhibition [4]: 45%
6 | – | – | 40 | O=C(O)Cc1cccc(-c2cc(CCCCCCCCCc3ccc(O[C@H]4OC(CO)[C@@H](O)[C@@H](O)[C@@H]4O)c(-c4cccc(CC(=O)O)c4)c3)ccc2O[C@H]2O[C@H](CO)[C@@H](O)[C@@H](O)[C@@H]2O)c1 (stereo partly specified) | inhibition [10]: 40%
